What was measured:
[1] = test system: T47D cells; assay: ER and FOXA1 ChIP-seq upon BYL719 treatment; format: cell-based, human
Procedure: Cells were crosslinked with 1% paraformaldehyde added directly to the culture medium to a final concentration of 1% and incubated at room temperature for 15 minutes. The crosslinked cells were quenched with ice-cold glycine for 5 minutes, washed with PBS and collected. The cells were then lysed with SDS lysis buffer (10 ml of 1% SDS, 10 mM EDTA, 50 mM Tris-HCl, pH 8.1) containing protease and phosphatase inhibitors for 15 minutes prior to sonication. Cells were sonicated in 10-s pulses for a total of 10 min. […]
Paired ends 36 bp sequencing was performed at the Genomics Core of Memorial Sloan Kettering Cancer Center using HiSeq (Illumina). Reads were first processed with Trimmomatic to remove the adaptor sequences and bases with quality scores below 20 and reads with less than 30 remaining bases were discarded^34. Trimmed reads were then aligned to hg19 human genome with the bowtie aligner^35. […] To find a set of peaks that are reproducible across the two biological replicates of a given cell condition, the per-replicate P-value of each peak was calculated using only the read count at the peak from the individual replicate and estimated the irreproducible discovery rate (IDR)^37 from the two sets of P-values that the replicates produced. […]
Differentially accessible peaks from combined atlas were identified with […] by counting all read ends overlapping peaks in each condition. […]

[2] = test system: enhancers or promoters of canonical ER target genes in T47D and MCF7 cells; assay: ChIP-qPCR of ER, FOXA1, PBX1 and H3K4me1/2 occupancy at ER target genes; format: cell-based, human; conditions: DMSO or BYL719 for 24 h
Procedure: (§1) Cells were crosslinked with 1% paraformaldehyde added directly to the culture medium to a final concentration of 1% and incubated at room temperature for 15 minutes. The crosslinked cells were quenched with ice-cold glycine for 5 minutes, washed with PBS and collected. The cells were then lysed with SDS lysis buffer (10 ml of 1% SDS, 10 mM EDTA, 50 mM Tris-HCl, pH 8.1) containing protease and phosphatase inhibitors for 15 minutes prior to sonication. Cells were sonicated in 10-s pulses for a total of 10 min. The sheared chromatin was diluted with ChIP Dilution buffer (0.01% SDS, 1.1% Triton X-100, 1.2 mM EDTA, 16.7 mM Tris-HCl, pH 8.1, 167 mM NaCl) and incubated overnight with Protein G Dynabeads (Thermo Fisher Scientific), which were pre-incubated with specific antibodies. ChIP antibodies to the following proteins were used: FOXA1 (ab5089) Abcam, PBX1 (H00005087-MO1) from Abnova, ER alpha (sc-543) from Santa Cruz and rabbit KMT2D homemade antibody which was generated by Eurogentec (third bleed) and affinity purified against GRARLKSTASSIC peptide (SEQ ID NO: 36). […]

[3] = test system: breast tumor samples from patients; assay: ATAC-seq of paired breast tumor biopsies from patients treated with BYL719; format: in vivo, human; conditions: paired tumor biopsies prior to therapy and on-therapy
Source text: Starting from fastq files containing ATAC-seq paired-end reads, sequencing adaptors were removed using Trimmomatic^34. Trimmed reads were mapped to the hg19 human genome using Bowtie2^35 allowing at most 1 seed mismatch and keeping only uniquely aligned reads. Duplicates were removed using Picard (http://picard.sourceforge.net). For peak-calling the read start sites were adjusted (reads aligning to the +/−strand were offset by +4 bp/−5 bp, respectively) to represent the center of the transposon binding-event, as described in Buenrostro et al.^21 For each samples, ATAC-seq was run on two biological replicates. Peak calling was performed on each condition individually by pooling reads from biological replicates and using MACS2^36 with a permissive P-value threshold (−p 1e−2). To find a set of peaks that are reproducible across the two biological replicates of a given cell condition, we calculated the per-replicate P-value of each peak using only the read count at the peak from the individual replicate and estimated the irreproducible discovery rate (IDR)^37 from the two sets of P-values that the replicates produced. […] Differentially accessible peaks from this atlas were identified with edgeR^38 by counting all read ends overlapping peaks in each condition. edgeR was run with default settings, a fold-change threshold of 2 and FDR <0.01. […]

[4] = test system: KMT2D; assay: ChIP-qPCR time course for KMT2D, H3K4me1 and H3K4me2 upon BYL719; format: cell-based, human; conditions: BYL719 (1 μM) for 2, 4, 8, 12 and 24 h
Procedure: as §1

[5] = test system: T47D and MCF7 cells; assay: MTT cell viability assay; format: cell-based, human; conditions: BYL719 for 5 days
Source text: When indicated, MCF7 or T47D cells were transduced with lentiviruses expressing empty vector (pLKO. 1) or an shRNA against KMT2D (pLKO. 1) (disclosed in Table 1) or shRNA against FOXA1, shFOXA1 #1 TRCN0000014882; shFOXA1 #2: TRCN0000014880; or shRNA against PBX1, shPBX1 #1: TRCN0000020390; shPBX1 #2: TRCN0000020391). When indicated, MCF7 cells were transduced with pTRIPZ vectors (TRE-RFP-miR30/shRNA-UBC-IRES-PURO) targeting PBX1 or FOXA1 knockdown upon doxycycline administration. When indicated, MCF7 cells were transduced with LT3REPIR (pRRL) vector (T3G-dsRED-mirE/shRNA-PGK-PURO-IRES-rtTA3) targeting KMT2D knockdown upon doxycycline administration. For lentiviral production, 293T cells were transfected with pCMV-VSVG, pCMV-dR8.2 and the plasmid of interest using lipofectamine 3000 according to the manufacture's protocol.
BYL719 was obtained from the Stand Up to Cancer (SU2C) pharmacy. BYL719 was dissolved in DMSO for in vitro experiments. The MTT assay was used to measure cell viability. Briefly, 5000 cells were seeded in 96 well plates, treated with BYL719 for 5 days and assayed using 0.25% MTT (Sigma) and 50 mM sodium succinate (Sigma) for 3 hours. After the formazan crystals were dissolved with DMSO, the absorbance was measured at 570 nm of wavelength. Doxycycline was purchased from Sigma.

[6] = test system: MCF7 xenografts; assay: MCF7 inducible shRNA in vivo xenograft; parameters: species or system athymic Foxn1nu mice
Procedure: Animals were maintained based on the institutional guidelines of Memorial Sloan Kettering Cancer Center (Protocol number 12-10-019). 6×10^6 MCF7 cells in 1:1 DF12 media/Matrigel (Corning) were injected subcutaneously into four to six week old female athymic Foxn1^nu mice. Mice were randomized when tumors reached ˜[…] of volume. 5 mice, 10 tumors were then treated with BYL719 (25 mg×kg^−1 in 0.5%) in carboxymethylcellulose (Sigma) daily for the indicated times. Tumors were collected at the end of the experiments, two to four hours after the last treatment.
Two way t-tests were performed using GraphPad Prism (GraphPad Software), P-values are indicated in the respective graphs. All cellular experiments were repeated at least three times. The in vivo experiments contained 10 tumors for each treatment arm and the sample size was chosen to reflect a difference in means of 20% with a power of 90%. Before the commencement of the in vivo experiments, animals were measured and randomized in groups with similar average tumor volume. Bioinformatics statistics are indicated in the respective method descriptions.

[7] = test system: ER-dependent genes in T47D and MCF7 cells; assay: RT-qPCR of ER-dependent genes in hormone depleted cells; format: cell-based, human; conditions: cells treated with BYL719 (1 μM) for 24 h
Source text: All cell lines were obtained from ATCC and used at low passages. T47D cells were maintained in RPMI 1640 with 10% FBS, 1% L-glutamine and 1% penicillin-streptomycin. MCF7 cells were maintained in DF-12 DMEM Dulbecco medium with 10% FBS, 1% L-glutamine and 1% penicillin-streptomycin. HEK 293T cells were maintained in DMEM Dulbecco medium supplemented with 10% FBS, 1% L-glutamine and 1% penicillin-streptomycin. For RNA analysis, MCF7 cells or T47D cells underwent hormonal starvation. MCF7 and T47D were cultured for 3 days in phenol-red-free DF12 DMEM and phenol-red-free RPMI respectively, media was supplemented with 5% charcoal/dextran-treated FCS. Cells were induced with E2 (100 nM), BYL719 (1 μM) or vehicle (DMSO) for 24 hours.
Total RNA was extracted from patient biopsies tissue using TRIzol (Life Technologies) and treated with DNAse before cDNA synthesis. cDNA synthesis was performed using the Bio-Rad cDNA synthesis kit according to the manufacturer's instructions. RNA was isolated from cells using the QIAGEN RNeasy kit. The qPCR SYBR green mix (Applied Biosystems) was used to amplify specific cDNA fragments with the oligonucleotides listed in Extended figure using the ViiA™ Real Time PCR system (Applied Biosystems). The data were analyzed by the change-in-threshold (2^−ΔΔCT) method using Actin or GAPDH as a housekeeping genes to obtain relative RNA expression. […]

Cc1nc(NC(=O)N2CCC[C@H]2C(N)=O)sc1-c1ccnc(C(C)(C)C(F)(F)F)c1 [BYL719]
co-occupancy of ER and FOXA1 at specific target loci ([1]; BYL719 (1 μM) for 24 h): increased co-occupancy of ER and FOXA1
ER binding events (ER ChIP-seq) ([1]; DMSO or BYL719 for 24 h): induced differential ER binding
binding of ER, FOXA1 and PBX1 to enhancers or promoters of canonical ER target genes [2]: significantly enhanced
chromatin accessibility in regions responsive to PI3K inhibition [3]: increase in chromatin accessibility
KMT2D recruitment at regulatory regions [4]: peaked at early hours
abundance of H3K4me1/2 occupying regulatory regions [4]: elevated at the same time points
cell viability, KMT2D knockdown combined with BYL719 ([5]; ER-positive cell lines): greater effect
viability of cells treated with BYL719 upon FOXA1 and PBX1 silencing ([5]; constitutive or inducible shRNAs): decrease the viability
antitumor effect of silencing KMT2D in the presence of BYL719 ([6]; MCF7 inducible shKMT2D xenografts, BYL719 daily 25 mg/kg): enhanced
anti-tumor activity of BYL719 with FOXA1 silencing ([6]; MCF7 xenografts, inducible shFOXA1, BYL719 daily 25 mg/kg): markedly increased the anti-tumor activity
expression of ER-dependent genes in the absence of KMT2D [7]: decrease of expression
